Data as given in patent US20120083505A1, “Use of opioid receptor antagonists for acute treatment of paraphilic arousal states” (priority 2009, published 2012).

Tests used:
obsessive sexual desire = conditions: two cases; regular fixed dosage regimen over a longer period; after several treatments; cited from earlier work
[1] = system: patients with paraphilic patterns of sexual excitation/arousal; experiment: Case reports: acute nasal naloxone in two paedophilic patients, self-rated impulse control; format: in vivo, human; conditions: one or two puffs of nasal spray, 0.2 mg Naloxonhydrochloride per puff
From the text: In the clinical application (two patients with paraphilic patterns of sexual excitation/arousal, both paedophiles, but with individual symptomatology) the following observations were made:
The patient is a person with paedophile inclination towards sexually immature girls (in addition to their predominant orientation towards adult women). In their first marriage they had repeatedly abused the child of their spouse […] (touching the genitals of the child, as well as having themself touched until reaching the climax). These crimes have not yet become known or led to any form of legal prosecution, and this first marriage is divorced since several years. Owing to their job as music teacher the patient was increasingly in contact with girls of the preferred age during the recent two years; the patient was very worried (and this worry was justified) that they might exploit the situation for the sexual abuse of their pupils. In the course of treatment at the Institute for Sexual Medicine of the Charité University Clinic of Berlin the patient has changed their professional field so that they are mainly involved in the treatment of grown-ups. […]

## O=C1CC[C@@]2(O)[C@H]3Cc4ccc(O)c5c4[C@@]2(CCN3CC2CC2)C1O5 (stereo partly drawn) [Naltrexon, 17-cyclopropylmethyl-3,14-dihydroxy-4,5-epoxy-morphinan-6-on]
Obsessive sexual desire
  frequency of obsessive sexual desire: reduction in frequency of obsessive sexual desire could be observed

## C=CCN1CC[C@]23c4c5ccc(O)c4O[C@H]2C(=O)CC[C@@]3(O)[C@H]1C5 [naloxone, 17-allyl-3,14-dihydroxy-4,5-epoxy-morphinan-6-on]
[1]; patient 1 (marked expression of symptoms)
  sexual interest in the child: sufficient reduction of their sexual interest in the child
[1]; patient 2 (moderate expression of symptoms)
  sexual interest in child one: reduction of their sexual interest in child one
